The results in this text go back to patent publication US20160243096A1, “METHODS OF TREATING ORTH[…]” (Emergent Virology LLC, priority 2009, published 2016).

Series [1] is described as follows: Iminosugar safety study in mice. In kind it is in vivo, BALB/c and C57/B1/6 mice. The note with it: for weight loss compared to vehicle only control: BALB/c and C57/B1/6 mice, oral 100 and 10 mg/kg twice a day for 7 days; for clinical signs: highest concentration (100 mg/kg twice a day, 7 days). Here is the method:
Methods and Discussion: BALB/c and C57/B1/6 mice were given oral suspensions of UV-1, UV-4, UV-5, twice a day for seven days, in 100 ul per mouse at 100 and 10 mg/kg (2 mg and 0.2 mg/mouse, respectively) 8 hours apart for 7 days, and then monitored for weight loss and general health. […] The results of these experiments are in FIG. 6.

Series [2] relates to Influenza A virus H3N2 (Hong Kong). Briefly: Inhibition of infectivity / virus yield reduction in MDCK cells. In kind it is cell-based. The conditions noted are these: virus yield reduced by 1 log10, 3 days. The method, then: Table provides data for inhibition of infectivity of Influenza A virus H3N2 (Hong Kong) for NB-DNJ (UV-1), NN-DNJ (UV-2), N7-O-DNJ (UV-3), N9-DNJ (UV-4) and NAP-DNJ (UV-5).
Procedure. The compounds were screened for inhibition of generation of infectious virus was conducted on the UV compounds at concentrations up to 500 μM. The influenza virus, Influenza A H3N2, Brisbane/10/2007 strain was evaluated for virus inhibition. MDCK cells (Madin Darby canine kidney cell line) obtained from American Type Culture Collection (ATCC, Manassas, Va.). Cells were cultured in U1traMDCK, supplemented with 2 mM L-glutamine, 1 μg/ml TPCK-treated trypsin and 100 U/ml penicillin, 100 μg/ml streptomycin in cell culture treated 24-well flat bottom plates at 37° C. in a 5% CO2 incubator for 24 hr or until 80% confluent prior to assay. Cells were pretreated with compounds in a final concentration of 0.5% DMSO for 1 hr followed by addition of virus inoculums. Three wells per virus are saved for a virus-only control. Only medium is added in exchange for compound in these wells, and virus is added after the initial 1 hr incubation. Three days later virus containing supernatants were collected and effect on reduction of virus yield are tested by assaying frozen and thawed eluates from each well for virus titer by serial dilution onto monolayers of MDCK susceptible cells.

For series [3], the system named is INFV A H1N1 (strain A/Texas). Briefly: Influenza in vivo study: survival of infected mice. Also on record: species or system Balb/c mice. The note with it: ~5 LD50 intranasal, monitored 15 days. The method, then: UV-4 was administered as a free drug dissolved in acidic water. The compound was given at 100 mg/kg and 10 mg/kg by the oral route (intragastric via oral gavage—IG) twice daily. Balb/c mice received the compound for 10 days. Mice were infected with INFV A H1N1 (strain A/Texas) intranasally with ˜5 LD50 30 minutes following the first iminosugar dose.
Animals were monitored for 15 days. Animals were weighed once per day, and given health scores 2X per day. Animals displaying severe illness (as determined by 30% weight loss, extreme lethargy, ruffled coat, or paralysis) were euthanized.

For series [4], the system named is INFV A H1N1 (strain A/Texas). Briefly: Second influenza in vivo study: survival after H1/N1 (Texas) virus challenge. Also on record: species or system Balb/c mice. The conditions noted are these: 100 mg/kg TID oral for 10 days, ~1 LD90. The method, then:
UV-4 was administered to the treated mice as a free drug dissolved in acidic water by the oral route (intragastric via oral gavage—IG) 100 mg/kg, TID for 10 days. The control mice received water orally, TID, instead of UV-4. Balb/c mice were used both for the treated mice and the control mice. Each mouse was microchipped for individual identity.
Mice were infected with INFV A H1N1 (strain A/Texas) intranasally with ˜1 LD90.
Animals were monitored for 15 days. Animals were weighed once per day, and given health scores 2× per day. Animals displaying severe illness (as determined by 30% weight loss, extreme lethargy, ruffled coat, or paralysis) were euthanized. The endpoint was considered a death of the animal or a more than 30% weight loss.
The studied mice include the following groups (10 mice per group):
1) 1 hr pre-treatment. These mice received their first UV-4 dose 1 hr before being infected with INFV A H1N1 (strain A/Texas).
2) 24 hr post-treatment. These mice received their first UV-4 dose 24 hr after being infected with INFV A H1N1 (strain A/Texas).
3) 48 hr post treatment. These mice received their first UV-4 48 hr after being infected with INFV A H1N1 (strain A/Texas).
4) 96 hr post treatment. These mice received their first UV-4 96 hr after being infected with INFV A H1N1 (strain A/Texas).

As for `CCCCN1C[C@H](O)[C@@H](O)[C@H](O)[C@H]1CO` [UV-1, N-Butyl deoxynojirimycin], the “weight loss compared to vehicle only control” value in series [1] is “did not show any significant signs of weight loss”. The IC90 in series [2] stood at 20000 nM.
In turn, `CCCCCCCCCN1C[C@H](O)[C@@H](O)[C@H](O)[C@H]1CO` [UV-2, N-Nonyl deoxynojirimycin] had a concentration for an effect of 90% (IC90) in series [2] of 200 nM.
`CCCOCCCCCCN1C[C@H](O)[C@@H](O)[C@H](O)[C@H]1CO` [UV-3, N-(7-Oxadecyl)deoxynojirimycin]: the concentration for an effect of 90% (IC90) in series [2] is 200 nM.
Turning to `COCCCCCCCCCN1C[C@H](O)[C@@H](O)[C@H](O)[C@H]1CO` [UV-4, N-(9-Methoxynonyl)deoxynojirimycin], the “weight loss compared to vehicle only control” value in series [1] is “did not show any significant signs of weight loss”. The survival rate in series [3] (10 mg/kg BID oral gavage for 10 days) and in series [3] (100 mg/kg BID oral gavage for 10 days) was 90% in each case. Moreover, the survival was 100% in series [4] (first dose 1 hr before infection), 100% in series [4] (first dose 24 hr after infection), 90% in series [4] (first dose 48 hr after infection) and 90% in series [4] (first dose 96 hr after infection). In addition, the 90% effect level in series [2] (IC90) was put at 200 nM.
On to `[N-]=[N+]=Nc1ccc(NCCCCCCN2C[C@H](O)[C@@H](O)[C@H](O)[C@H]2CO)c([N+](=O)[O-])c1` [UV-5, N-(N-{4′-azido-2′-nitrophenyl}-6-aminohexyl)deoxynojirimycin], for which, in series [1], the “weight loss compared to vehicle only control” value is reported as “did not show any significant signs of weight loss”. Besides, the clinical signs entry in series [1] (BALB/c mice) was “signs of diarrhea, red urine, and a ruffled appearance”; in series [1] (C57/B1/6 mice) it was “these same symptoms but without the ruffled look”. Also, in series [2], the 90% effect level (IC90) was put at 200 nM.
